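In this assay, cells in 96-well plates receive the compound at five concentrations for 48 hours. Endpoints are linearly interpolated between the surrounding concentrations. GI50 = concentration required for 50% inhibition of growth.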 Activity calls are given as the source filed them. No stated cut-off is given here; in the data, active = GI50 up to about 1.1 µM and inactive = higher.
Legend:
Test in all cases: DTP human tumour cell line panel, 48 h
786-0 = system: 786-0
COLO 205 = system: COLO 205
HCT-116 = system: HCT-116
HCT-15 = system: HCT-15
KM-20L2 = system: KM-20L2
KM12 = system: KM12
M14 = system: M14
MOLT-4 = system: MOLT-4
NCI-H23 = system: NCI-H23
NCI-H522 = system: NCI-H522
OVCAR-5 = system: OVCAR-5
OVCAR-8 = system: OVCAR-8
RXF 393 = system: RXF 393
SN12C = system: SN12C
SNB-19 = system: SNB-19
U-251 = system: U-251
UACC-257 = system: UACC-257
UO-31 = system: UO-31

| SMILES | GI50 (786-0) | GI50 (COLO 205) | GI50 (HCT-116) | GI50 (HCT-15) | GI50 (KM-20L2) | GI50 (KM12) | GI50 (M14) | GI50 (MOLT-4) | GI50 (NCI-H23) | GI50 (NCI-H522) | GI50 (OVCAR-5) | GI50 (OVCAR-8) | GI50 (RXF 393) | GI50 (SN12C) | GI50 (SNB-19) | GI50 (U-251) | GI50 (UACC-257) | GI50 (UO-31) |
| --- | --- | --- | --- | --- | --- | --- | --- | --- | --- | --- | --- | --- | --- | --- | --- | --- | --- | --- |
| COc1cc2c(cc1OC)C(CC(=O)NN=C(C)C)NCC2 (stereo not drawn) | > 100 µM (inactive) | > 100 µM (inactive) | > 100 µM (inactive) | > 100 µM | > 100 µM (inactive) | > 100 µM (inactive) | > 100 µM (inactive) | > 100 µM (inactive) | > 100 µM (inactive) | > 100 µM (inactive) | > 100 µM (inactive) | > 100 µM (inactive) | > 100 µM (inactive) | > 100 µM (inactive) | > 100 µM (inactive) | > 100 µM (inactive) | > 100 µM (inactive) | > 100 µM (inactive) |
| CC(C)(C)C1CCC(CI)(N=[N+]=[N-])CC1 (stereo not drawn) | > 100 µM (inactive) | > 100 µM (inactive) | > 100 µM (inactive) | > 100 µM | > 100 µM (inactive) | > 100 µM (inactive) | > 100 µM (inactive) | > 100 µM (inactive) | > 100 µM (inactive) | > 100 µM (inactive) | > 100 µM (inactive) | > 100 µM (inactive) | > 100 µM (inactive) | > 100 µM (inactive) | > 100 µM (inactive) | > 100 µM (inactive) | > 100 µM (inactive) | > 100 µM (inactive) |
| CNC(N)NC | > 100 µM (inactive) | > 100 µM (inactive) | > 100 µM (inactive) | > 100 µM | > 100 µM (inactive) | > 100 µM (inactive) | > 100 µM (inactive) | > 100 µM (inactive) | > 100 µM (inactive) | > 100 µM (inactive) | > 100 µM (inactive) | > 100 µM (inactive) | > 100 µM (inactive) | > 100 µM (inactive) | > 100 µM (inactive) | > 100 µM (inactive) | > 100 µM (inactive) | > 100 µM (inactive) |
| COc1ccccc1NC(=O)CC(=O)n1nc(C)c(/N=N/c2ccccc2F)c1C | 76.6 µM (inactive) | > 100 µM (inactive) | > 31.6 µM (inactive) | > 100 µM | > 100 µM (inactive) | > 100 µM (inactive) | > 100 µM (inactive) | > 31.6 µM (inactive) | > 96.2 µM (inactive) | > 100 µM (inactive) | > 100 µM (inactive) | 44.6 µM (inactive) | > 57.3 µM (inactive) | > 100 µM (inactive) | > 76 µM (inactive) | 58.6 µM (inactive) | > 100 µM (inactive) | > 100 µM (inactive) |
| O=C1OC(c2ccc(Cl)c3ccccc23)c2ccccc21 (stereo not drawn) | 67.6 µM (inactive) | > 100 µM (inactive) | 91.2 µM (inactive) | 90.4 µM | 64.3 µM (inactive) | > 100 µM (inactive) | > 100 µM (inactive) | 77.6 µM (inactive) | > 100 µM (inactive) | > 100 µM (inactive) | > 100 µM (inactive) | > 100 µM (inactive) | 26.1 µM (inactive) | > 100 µM (inactive) | > 100 µM (inactive) | > 100 µM (inactive) | > 100 µM (inactive) | > 100 µM (inactive) |
| COc1cc2c(cc1OC)C(O)[C@H](Br)C(C)(C)O2 (stereo partly drawn) | > 100 µM (inactive) | > 100 µM (inactive) | > 100 µM (inactive) | > 100 µM | > 100 µM (inactive) | > 100 µM (inactive) | > 100 µM (inactive) | > 100 µM (inactive) | > 100 µM (inactive) | > 100 µM (inactive) | > 100 µM (inactive) | > 100 µM (inactive) | > 100 µM (inactive) | > 100 µM (inactive) | > 100 µM (inactive) | > 100 µM (inactive) | > 100 µM (inactive) | > 100 µM (inactive) |
| CSc1ccc2c(cc1=O)C(NC(=O)c1ccccc1)CCc1cc(O)c(O)c(O)c1-2 (stereo not drawn) | 29.4 µM (inactive) | 23.2 µM (inactive) | 18.5 µM (inactive) | 18.1 µM | 1.81 µM (inactive) | 4.81 µM (inactive) | 15.6 µM (inactive) | 21.3 µM (inactive) | 4.37 µM (inactive) | 17.1 µM (inactive) | > 100 µM (inactive) | 37.4 µM (inactive) | 24.5 µM (inactive) | 18.4 µM (inactive) | 5.69 µM (inactive) | 6.37 µM (inactive) | 15.3 µM (inactive) | 77.8 µM (inactive) |
| c1ccc(CN(Cn2cccn2)Cn2cccn2)nc1 | > 100 µM (inactive) | > 100 µM (inactive) | 61.5 µM (inactive) | > 100 µM | > 100 µM (inactive) | > 100 µM (inactive) | > 100 µM (inactive) | > 100 µM (inactive) | > 100 µM (inactive) | > 100 µM (inactive) |  | > 100 µM (inactive) | > 100 µM (inactive) | > 100 µM (inactive) | > 100 µM (inactive) | > 100 µM (inactive) | > 100 µM (inactive) | > 100 µM (inactive) |

— ChEMBL document CHEMBL1201862, “PubChem BioAssay data set” (2004)
